Results published in patent US11254652B2, “Crystalline forms of N-(4-(4-(cyclopropymethyl)piperazine-1-carbonyl)phenyl)quinoline-8-sulfonamide” (Agios Pharmaceuticals, Inc., priority 2017, dated 2022).
Read-outs that look alike come from different tables or passages of the source.

How the values were obtained:
Type in all cases: physicochemical
[1] = Solubility measurements by gravimetric method in solvents at 23° C. and 50° C.; conditions: for solubility at 2 days: thermodynamic from solid
Experimental: Solubility measurements were done by gravimetric method in 20 different solvents at two temperatures (23° C. and 50° C.). About 20-30 mg of Form A, the synthesis of which is described below, was weighed and 0.75 mL solvent was added to form a slurry. The slurry was then stirred for two days at the specified temperature. The vial was centrifuged and the supernatant was collected for solubility measurement through gravimetric method. The saturated supernatant was transferred into pre-weighed 2 mL HPLC vials and weighed again (vial+liquid). The uncapped vial was then left on a 50° C. hot plate to slowly evaporate the solvent overnight. The vials were then left in the oven at 50° C. and under vacuum to remove the residual solvent so that only the dissolved solid remained. The vial was then weighed (vial+solid). From these three weights; vial, vial+liquid and vial+solid; the weight of dissolved solid and the solvent were calculated. Then using solvent density the solubility was calculated as mg solid/mL of solvent.
20-30 mg of Form A was weighed into 2 mL vial and 500 μL MeOH solvent system as outlined in the table was added. If dissolved, more solids were added to form the slurry. The slurries were then stirred for two days. The vials were centrifuged and the supernatant was collected for solubility measurement through gravimetric method by evaporation at 50° C. XRPD analysis was conducted on the solid after filtration of the slurries.
For the sake of comparison, the solubility of Compound 1, i.e., the non-crystalline freebase, was also measured in two solvent systems to see the effect of water.

[2] = Stability study of Form A under temperature/RH storage
[3] = Dynamic Vapor Sorption (DVS)
Experimental: Dynamic Vapor Sorption (DVS) was done using a DVS Intrinsic 1. The sample is loaded into a sample pan and suspended from a microbalance. A typical sample mass for DVS measurement is 25 mg. Nitrogen gas bubbled through distilled water provides the desired relative humidity. A typical measurement comprises the steps: • 1. Equilibrate at 50% RH • 2. 50% to 2%. (50%, 40%, 30%, 20%, 10% and 2%) • a. Hold minimum of 5 mins and maximum of 60 minutes at each humidity. The pass criteria is less than 0.002% change • 3. 2% to 95% (2%, 10%, 20%, 30%, 40%, 50%, 60%, 70%, 80%, 90%, 95%) • b. Hold minimum of 5 mins and maximum of 60 minutes at each humidity. The pass criteria is less than 0.002% change • 4. 95% to 2% (95%, 80%, 70%, 60%, 50%, 40%, 30%, 20%, 10%, 2%) • c. Hold minimum of 5 mins and maximum of 60 minutes at each humidity. The pass criteria is less than 0.002% change • 5. 2% to 50% (2%, 10%, 20%, 30%, 40%, 50%) • d. Hold minimum of 5 mins and maximum of 60 minutes at each humidity. The pass criteria is less than 0.002% change
(§1) The water content by Karl Fisher was about 5.3%. […] A DVS isotherm taken at 40° C. was essentially the same as the one at 25° C. […] Humidity test was conducted on Form A with exposure to 11%, 48%, and 75% relative humidity at 40° C. for 2 weeks followed by XRPD analysis. […] Crystallographic data for Form A is as follows:
Form B tends to hold substantial amount of solvent.
(§2) Form D was determined to be anhydrous with a melting peak at 239° C. See e.g., FIG. 9. DVS of Pattern D was performed and solid picked up about 2% moisture from 2% to 95% relative humidity.

[4] = Humidity / desiccant exposure test followed by XRPD analysis; conditions: for XRPD after exposure to phosphorus pentoxide (P2O5) granules: one week
Experimental: FIG. 5 (i) depicts X-ray powder diffraction pattern (XRPD) overlay for crystalline hemisulfate salt Form A and after exposure to 11%, 48%, and 75% relative humidity and 40° C. for two weeks. […] FIG. 5 (ii) depicts XRPD overlay for crystalline hemisulfate salt Form A and after exposure to phosphorus pentoxide (P2O5) granules at room temperature and 50° C. for one week, as well as ambient temperature in a vial for 24 hrs.
as §1, §2

With `O=C(c1ccc(NS(=O)(=O)c2cccc3cccnc23)cc1)N1CCN(CC2CC2)CC1` [Form A, 1-(cyclopropylmethyl)-4-(4-(quinoline-8-sulfonamido)benzoyl)piperazin-1-ium hemisulfate sesquihydrate] the solubility at 2 days ([1]; MeOH, 50 °C, organic solvent or mixture, MeOH, 50° C., 2 days slurry, read-out: Solubility) was > 765000 µg/mL, the solubility at 2 days ([1]; MeOH:Water (1:1), 23 °C, aqueous with cosolvent or surfactant or cyclodextrin, MeOH:Water (1:1), 23° C., read-out: Solubility) was 7000 µg/mL and the solubility at 2 days ([1]; MeOH:Water (1:1), 50 °C, aqueous with cosolvent or surfactant or cyclodextrin, MeOH:Water (1:1), 50° C., read-out: Solubility) was 27000 µg/mL. The solubility at 2 days ([1]; MeOH:water (1:1) system as printed, 0 vol % water, organic solvent or mixture, MeOH:water (1:1) system as printed, 0 vol % water, read-out: room temperature solubility) was 208000 µg/mL, the solubility at 2 days ([1]; MeOH:water (1:1) system as printed, 1% water, organic solvent or mixture, MeOH:water (1:1) system as printed, 1% water, read-out: room temperature solubility) was 118000 µg/mL and the solubility at 2 days ([1]; MeOH:water (1:1) system as printed, 2.5% water, organic solvent or mixture, MeOH:water (1:1) system as printed, 2.5% water, read-out: room temperature solubility) was 39000 µg/mL. It also gave a solubility at 2 days ([1]; MeOH:water (1:1) system as printed, 5% water, organic solvent or mixture, MeOH:water (1:1) system as printed, 5% water, read-out: room temperature solubility) of 5000 µg/mL, a solubility at 2 days ([1]; MeOH:water (8:2), 23 °C, organic solvent or mixture, MeOH:water (8:2), 23° C., read-out: Solubility) of 10000 µg/mL and a solubility at 2 days ([1]; MeOH:water (8:2), 50 °C, organic solvent or mixture, MeOH:water (8:2), 50° C., read-out: Solubility) of 59000 µg/mL. It also gave a solubility at 2 days ([1]; MtBE, 23 °C, organic solvent or mixture, MtBE, 23° C., read-out: Solubility) of 1000 µg/mL, a solubility at 2 days ([1]; MtBE, 50 °C, organic solvent or mixture, MtBE, 50° C., read-out: Solubility) of 3000 µg/mL and a solubility at 2 days ([1]; THF, 23 °C, organic solvent or mixture, THF, 23° C., read-out: Solubility) of 2000 µg/mL. It also gave a solubility at 2 days ([1]; THF, 50 °C, organic solvent or mixture, THF, 50° C., read-out: Solubility) of 26000 µg/mL, a solubility at 2 days ([1]; THF:water (8:2), 23 °C, organic solvent or mixture, THF:water (8:2), 23° C., read-out: Solubility) of 14000 µg/mL and a solubility at 2 days ([1]; THF:water (8:2), 50 °C, organic solvent or mixture, THF:water (8:2), 50° C., read-out: Solubility) of 77000 µg/mL. The Solubility ([1]; Toluene, 23° C.) was 0 mg solid/mL solvent, the solubility at 2 days ([1]; Toluene:EtOH:water (10:5:0.5), 23 °C, organic solvent or mixture, Toluene:EtOH:water (10:5:0.5), 23° C., read-out: Solubility) was 1000 µg/mL and the solubility at 2 days ([1]; Toluene:EtOH:water (10:5:0.5), 50 °C, organic solvent or mixture, Toluene:EtOH:water (10:5:0.5), 50° C., read-out: Solubility) was 4000 µg/mL. It also gave a solubility at 2 days ([1]; acetone, 23 °C, organic solvent or mixture, Acetone, 23° C., read-out: Solubility) of 1000 µg/mL, a solubility at 2 days ([1]; acetone, 50 °C, organic solvent or mixture, Acetone, 50° C., read-out: Solubility) of 6000 µg/mL and a solubility at 2 days ([1]; acetone:water (8:2), 23 °C, organic solvent or mixture, acetone:water (8:2), 23° C., read-out: Solubility) of 5000 µg/mL. It also gave a solubility at 2 days ([1]; acetone:water (8:2), 50 °C, organic solvent or mixture, acetone:water (8:2), 50° C., read-out: Solubility) of 16000 µg/mL, a solubility at 2 days ([1]; acetonitrile, 23 °C, organic solvent or mixture, Acetonitrile, 23° C., read-out: Solubility) of 4000 µg/mL and a solubility at 2 days ([1]; acetonitrile, 50 °C, organic solvent or mixture, Acetonitrile, 50° C., read-out: Solubility) of 6000 µg/mL. For the same compound, the solubility at 2 days ([1]; cyclohexane, 23 °C, organic solvent or mixture, Cyclohexane, 23° C., read-out: Solubility) was 1000 µg/mL, the solubility at 2 days ([1]; cyclohexane, 50 °C, organic solvent or mixture, Cyclohexane, 50° C., read-out: Solubility) was 1000 µg/mL and the “decrease of solubility on adding 5 vol % water” value ([1]; room temperature, 0 vs 5 vol % water) was 42 fold. The solubility at 2 days ([1]; toluene, 50 °C, organic solvent or mixture, Toluene, 50° C., read-out: Solubility) was 2000 µg/mL, the “degradation in stability study” value ([2]; one month under 40±2° C./75±5% RH) was “No degradation” and the “degradation in stability study” value ([2]; three months at 30±2° C./65±5% RH) was “No degradation”. For the same compound, the “degradation in stability study” value ([2]; three months under 25±2° C./60±5% RH) was “No degradation”, the “degradation in stability study” value ([2]; three months under 40±2° C./75% RH) was “No degradation” and the “degradation in stability study” value ([2]; twelve months under 25±2° C./60±5% RH) was “No degradation”. For the same compound, the “moisture picked up in DVS” value ([3]; 25° C., from 2% to 95% relative humidity) was “about 1.3%”, the “XRPD after DVS” value ([3]; Form A: DVS at 25° C. and 40° C., hemisulfate sesquihydrate) was “remained unchanged” and the “XRPD after humidity test” value ([4]; 11%, 48%, and 75% relative humidity at 40° C. for 2 weeks) was “remained unchanged”. The “XRPD after exposure to phosphorus pentoxide (P2O5) granules” value ([4]; 50° C.) was “slightly shifted”, the “XRPD peaks after P2O5 at 50° C. then exposure to ambient” value ([4]; ambient for 24 hrs, changes reversible) was “shifted back to original positions” and the “XRPD after exposure to phosphorus pentoxide (P2O5) granules” value ([4]; room temperature) was “no change”.
